{
  "source": "patent US20260240810A1",
  "about": "“COMPOSITIONS AND METHODS FOR REDUCING ADVERSE SIDE EFFECTS IN CANCER TREATMENT” (priority 2022, published 2026)",
  "key": {"hemoglobin": {"molecular_target": "T1, hemoglobin (Homo sapiens, UniProt P68871)", "T1 construct": "blood not pooled from 3 individual male humans; from tissue; host or cells: whole blood of 3 individual male humans", "T1 sequence (P68871 2-147 limits assumed)": "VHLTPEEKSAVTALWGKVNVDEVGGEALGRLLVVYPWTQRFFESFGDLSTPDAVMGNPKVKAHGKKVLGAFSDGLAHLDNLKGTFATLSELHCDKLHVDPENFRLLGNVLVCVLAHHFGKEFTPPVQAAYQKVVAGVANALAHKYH", "T1 sequence (P69905 2-142 partner limits assumed)": "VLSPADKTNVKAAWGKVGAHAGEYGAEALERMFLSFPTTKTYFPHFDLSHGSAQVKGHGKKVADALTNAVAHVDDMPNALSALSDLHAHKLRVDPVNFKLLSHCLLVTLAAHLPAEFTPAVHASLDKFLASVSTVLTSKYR", "assay": "14C-RRx-001 binding to hemoglobin in blood", "settings": "blood of rats, dogs, monkeys, humans; liquid scintillation counter", "method": "^14C-RRx-001 (1 μM and 20 μM) was incubated at a temperature of 37° C. for a time period of 30 minutes with blood pooled from 3 male Sprague Dawley rats, 3 male beagle dogs, and 2 male cynomolgus monkeys, and blood not pooled from 3 individual male humans. […] The range of binding to the 3 different human hemoglobin varied from 24% to 34%."}, "[1]": {"assay": "Repeated-dose toxicity study in rats", "format": "in vivo", "settings": "3 times/week up to 4 weeks", "method": "Repeated-dose toxicity studies of RRx-001 (3 times/week up to 4 weeks in duration) were conducted in rats at dose levels of 12 mg/kg, 20.1 mg/kg, and 30 mg/kg per day and in dogs at dose levels of 4 mg/kg, 8 mg/kg, and 12 mg/kg per day (due to clinical signs, the 8 mg/kg and 12 mg/kg doses were reduced to 3 mg/kg and 5 mg/kg on Day 4). The no observed adverse effect level was <12 mg/kg in rats and 5 mg/kg in dogs."}, "[2]": {"settings": "pharmacokinetic data, J. Scicinski et al. 2011; cited from earlier work"}, "[3]": {"tested_on": "severe oral mucositis in patients receiving head and neck chemoradiotherapy", "assay": "PREVLAR Phase 2a trial: oral mucositis in patients receiving cisplatin + IMRT", "format": "in vivo, human", "settings": "for Median SOM duration: all patients, baseline to last day of radiation, 0 days if never SOM; for percent of SOM visits: minimum 65 Gy cumulative radiation; for median duration of SOM: only patients who developed SOM, onset to last visit with SOM", "method": "Referring to FIG. 1, FIG. 1 is a table 100 showing a trial in which RRx-001 was tested in various groups of patients that were being treated for cancer with a combination of chemotherapy and IMRT. The various groups were divided into “Arms” based on a treatment: • Arm 1. pretreatment with 4 mg RRx-001 2 times per week for 2 weeks followed by 40 mg/m^2 each week or 100 mg/m^2 once every 3 weeks cisplatin+IMRT. • Arm 2. pretreatment with 4 mg RRx-001 2 times per week for 2 weeks followed by cotreatment with 4 mg RRx-001 2 times once on week 2 and once on week 5+40 mg/m^2 each week or 100 mg/m^2 once every 3 weeks cisplatin+IMRT. • Arm 3. pretreatment with 4 mg RRx-001 2 times per week for 2 weeks followed by cotreatment with 4 mg RRx-001 […]+40 mg/m^2 each week or 100 mg/m^2 once every 3 weeks cisplatin+IMRT. • Arm 4. standard of care 40 mg/m^2 each week or 100 mg/m^2 once every 3 weeks cisplatin+IMRT without RRx-001.\nAccordingly, patients in Arm 1 of the study were administered a pretreatment of RRx-001 over a 2-week period. No RRx-001 was administered to the patients following the pretreatment period. Following the 2-week pretreatment period, the therapeutic agent comprising cisplatin and IMRT was administered to the patients over a 6-week period.\nPatients in Arm 2 of the study were likewise administered a pretreatment of RRx-001 over a 2-week period. But RRx-001 was further administered at a low dose concurrently with cisplatin and IMRT over the 6-week period following the pretreatment period.\nArm 4 of the study was the control or standard of care (SOC). No RRx-001 was administered to the patients in Arm 4 of the study and there was no pretreatment period. All patients received the same amounts of cisplatin and IMRT for Arm 1, Arm2, Arm 3, and Arm 4 of the study. Patients in the study had the option to stop or refuse treatment at any time and not all patients finished the entire treatment.\nExample 2 is a Phase 2a randomized, multi-institutional (n=13, of which 12 enrolled), open-label/unblinded, controlled trial in which patients were centrally randomized into four groups (“Arms”), with approximately 10 patients per Arm (or group) before the start of CRT, stratified by oropharynx versus oral cavity site. See M. Bonomi, et al. (2023) Int. J. Radiat. Oncol. Biol. Phys. 116(3): p. 551-559.\nStudy participants were adults (>18 years) with pathologically diagnosed stage III to IVB locally advanced (nonmetastatic) squamous cell carcinoma of the oral cavity or oropharynx that were scheduled to receive definitive or postoperative daily fractionation IMRT of 2.0 Gy to 2.2 Gy for a total dose of 60 Gy to 72 Gy with concomitant cisplatin given as either weekly (40 mg/m^2) or tri-weekly (100 mg/m^2) infusions. Radiation fields included at least 2 oral sites at risk of OM (e.g., buccal mucosa, floor of mouth, lateral/ventral tongue, or soft palate), which were planned to receive a minimum cumulative dose of 55 Gy. […] Patients received a pretreatment evaluation including complete history, dental assessment, physical examination, complete blood count and complete metabolic profile, hematology and biochemistry profiles, optional laryngoscopy, chest computed tomography (CT) or positron emission tomography (PET)/CT, CT, and a magnetic resonance imaging (MRI) or PET/CT of the tumor site and neck nodes.\nArms 1 to 3 received twice weekly infusions of RRx-001, 4 mg/dose after a premedication dose of dexamethasone (10 mg) for the 2 weeks preceding the start of CRT. Patients in Arm 2 received two additional 4 mg doses of RRx-001 after being premedicated with dexamethasone in weeks 2 and 5 of their CRT regimen. Patients in Arm 3 received weekly RRx-001 (4 mg after dexamethasone pre-dosing) during the first 6 weeks of CRT. Treatment was completed on the last day of radiation therapy (LDRT).\nThe treatment phase commenced 2 weeks before the start of CRT and continued until the LDRT. […]"}, "[4]": {"settings": "Arm 1: RRx-001 pretreatment + SOC chemoradiation"}},
  "data": [
    {"smiles": "O=C(CBr)N1CC([N+](=O)[O-])([N+](=O)[O-])C1", "note": "[RRx-001, 2-bromo-1-(3,3-dinitroazetidin-1-yl) ethan-1-one]", "values": [
      {"measurement": "partitioning of radioactivity in blood", "setting": "hemoglobin", "value": "highly partition into red blood cells and covalently bind to hemoglobin"},
      {"measurement": "no observed adverse effect level", "setting": "[1]", "value": "< 12", "unit": "mg/kg"},
      {"measurement": "half-life of RRx-001", "setting": "[2]", "value": "under an hour"},
      {"measurement": "estimate (averaged across all visits) MMRM probability of SOM", "setting": "[3]; (pooled) RRx-001 treatment", "value": 15.3, "unit": "%"},
      {"measurement": "incidence of SOM (any WHO score ≥3 between baseline to the last day of radiation)", "setting": "[3]; Arm 1", "value": 83.3, "unit": "%"},
      {"measurement": "patients with at least one day of Grade 4 OM between the first and LDRT", "setting": "[3]; Arm 1", "value": 23.1, "unit": "%"},
      {"measurement": "percent of visits with most severe forms (Grade 4) mucositis", "setting": "[3]; Arm 1", "value": 3.3, "unit": "%"},
      {"measurement": "decrease in duration of SOM through 60 Gy vs. Arm 4", "setting": "[3]; Arm 1: 4 mg RRx-001 2 times per week for 2 weeks pretreatment, then cisplatin+IMRT", "value": 16, "unit": "days"},
      {"measurement": "average days longer than Arm 4 before onset of SOM from start of chemotherapy", "setting": "[3]; [4]", "value": 12, "unit": "days"},
      {"measurement": "decrease in SOM duration following treatment of IMRT compared to Arm 4", "setting": "[3]; [4]", "value": 18, "unit": "days"},
      {"measurement": "Median SOM duration", "setting": "[3]; Arm 1", "value": 5, "unit": "days"},
      {"measurement": "percent of SOM visits", "setting": "[3]; Arm 1", "value": 23.6, "unit": "%"},
      {"measurement": "median duration of SOM", "setting": "[3]; Arm 1", "value": 8.5, "unit": "days"},
      {"measurement": "incidence of SOM (any WHO score ≥3 between baseline to the last day of radiation)", "setting": "[3]; Arm 2", "value": 70, "unit": "%"},
      {"measurement": "patients with at least one day of Grade 4 OM between the first and LDRT", "setting": "[3]; Arm 2", "value": 40, "unit": "%"},
      {"measurement": "percent of visits with most severe forms (Grade 4) mucositis", "setting": "[3]; Arm 2", "value": 12.2, "unit": "%"},
      {"measurement": "incidence of grade 4 OM through 60 Gy", "setting": "[3]; Arm 2: RRx-001 pretreatment + 2 concurrent doses + SOC chemoradiation", "value": 40, "unit": "%"},
      {"measurement": "Median SOM duration", "setting": "[3]; Arm 2", "value": 13.5, "unit": "days"},
      {"measurement": "percent of SOM visits", "setting": "[3]; Arm 2", "value": 22.2, "unit": "%"},
      {"measurement": "median duration of SOM", "setting": "[3]; Arm 2", "value": 17, "unit": "days"},
      {"measurement": "incidence of SOM (any WHO score ≥3 between baseline to the last day of radiation)", "setting": "[3]; Arm 3", "value": 76.9, "unit": "%"},
      {"measurement": "patients with at least one day of Grade 4 OM between the first and LDRT", "setting": "[3]; Arm 3", "value": 46.2, "unit": "%"},
      {"measurement": "percent of visits with most severe forms (Grade 4) mucositis", "setting": "[3]; Arm 3", "value": 7.7, "unit": "%"},
      {"measurement": "incidence of grade 4 OM through 60 Gy", "setting": "[3]; Arm 3: RRx-001 pretreatment + 6 concurrent doses + SOC chemoradiation", "value": 46, "unit": "%"},
      {"measurement": "Median SOM duration", "setting": "[3]; Arm 3", "value": 8, "unit": "days"},
      {"measurement": "percent of SOM visits", "setting": "[3]; Arm 3", "value": 25.7, "unit": "%"},
      {"measurement": "median duration of SOM", "setting": "[3]; Arm 3", "value": 10, "unit": "days"},
      {"measurement": "Odds ratio estimate", "setting": "[3]; MMRM analysis of SOM, contrast SOC alone / (Pooled RRx-001)", "value": 3.24},
      {"measurement": "SOM Probability (averaged across all visits)", "setting": "[3]; MMRM analysis, pooled RRx-001-treated patients", "value": 0.153},
      {"measurement": "aggregate percent of SOM visits", "setting": "[3]; active arms, patients with minimum 65 Gy cumulative radiation", "value": 23.9, "unit": "%"},
      {"measurement": "incidence of SOM through the short-term follow-up period", "setting": "[3]; active patients", "value": 80, "unit": "%"},
      {"measurement": "SOM incidence by the last dose of radiotherapy (LDRT)", "setting": "[3]; aggregate active Arms, about 72 Gy", "value": 77.1, "unit": "%"},
      {"measurement": "patients exhibiting SOM", "setting": "[3]; patients who received RRx-001 (treated Arms), cumulative RT dose 45 Gy", "value": 42.9, "unit": "%"},
      {"measurement": "patients exhibiting SOM", "setting": "[3]; treated Arms, 55 Gy", "value": 57.1, "unit": "%"},
      {"measurement": "patients exhibiting SOM", "setting": "[3]; treated Arms, 65 Gy", "value": 71.4, "unit": "%"}
    ]}
  ]
}
